Patent US20080318876A1, “Use of Ginsenosides in the Treatment of Aids” (priority 2004, published 2008)
Like-named read-outs stand apart in the source and are kept apart here.

Tests used:
[1] = system: HIV-1 (single-life-cycle reporter HIV) in Hela-CD4-LTR-gal cells; assay: Inhibition of HIV-1 replication in HeLa-CD4 cells (MAGI test); format: cell-based; settings: for inhibition at 200 µg/mL: Human immunodeficiency virus 1, MAGI, read-out: Inhibition Rate (0.2 mg/ml)
Experimental: Three types of cells (such as MT4, Hela-CD4, PBMC) were infected respectively with HIV-1 virus for observation of the inhibiting effects of ginseng composition (JHR) prepared in Example 1 upon the HIV-1 replication.
Virus: Single-life-cycle reporter HIV was acquired by transfection with HIV plasmids.
Method: Hela-CD4-LTR-gal cell was inoculated into a 24-well plate at 0.4×10^5/well and cultured for 24 hours and let the cells absorb and adhere to the wall. On the second day, the supernatants were sucked away from the wells and 100 μl drug (drug control) or drug (drug solutions with different concentrations) and HIV-1 or culture medium (Mock) were added. After 2 hours, 200 μl of identical drug solutions or culture medium was added into each well for culturing at 37° C. in a CO2 incubator for 48 hours and detecting by the following method.
Fixation: The supernatants were sucked away from each well and adding the fixative solution (1 ml), and then by staining with K4[Fe(CN)6].3H2O, K3[Fe(CN)6] and X-gel.
Counting: For the blue cell counts (BCC) within each well, the following formula is used to calculate the IR and then IC50.
The same method as that in example 1 is applied, except that the drug added into the wells is Ginsenoside monomer, and the concentration thereof is listed in table 3.

gp120 protein = target: T1, gp120 protein (Human immunodeficiency virus type 1 group M subtype B, UniProt P03375); format: binding; settings: BIACORE chip, genetically recombined gp120
T1 construct: The genetically recombined gp41, gp120 were placed on the chip of BIACORE analyzer

gp41 protein = gp41 protein (Human immunodeficiency virus type 1 group M subtype B, UniProt P03375); assay: BIACORE binding to gp41 protein; settings: BIACORE chip, genetically recombined gp41; conjugation to gp41 stronger than to gp120
Excerpt: The genetically recombined gp41, gp120 were placed on the chip of BIACORE analyzer, respectively, after adding a certain concentration of Rb3 in sufficient amount, the instrument could detect whether or not there was a binding.

[2] = system: HIV single life cycle model; assay: Viral life cycle stage targeted: dosing at different times post-infection (single life cycle model, MAGI or Luciferase); format: cell-based
HIV-1 in Hela-CD4 cells = assay: Combination medication JHR and AZT (MAGI test); format: cell-based
Experimental: Method: For the experiment, the MAGI test method was adopted (the same as above).
(A) Single-agent medication: five doses of AZT were used in amount of from 1 μM to 3.9 nM, and were designated AZT1-5, five doses of JHR were designated in amount of 400 ug/ml to 1.56 ug/ml, and IC50 were obtained respectively.
Half dosage of AZT was combined with half dosage of JHR-1 as one sample. AZT1 was combined respectively with any of JHR1-JHR5; Each of AZT2, AZT3, AZT4, AZT5 was respectively combined with any of […]. So a total of 25 concentration combinations could be used. Each concentration was set in duplicate wells (2 wells). Additional group was taken as cell and virus controls.
(C) Comparing each drug combination with the virus group to have the inhibition rate. The inhibition rate of each drug combination was compared with the sole AZT IC50 to obtain the difference of functions each other.

## CC(C)=CCC[C@](C)(OC1OC(COC2OC(CO)C(O)C2O)C(O)C(O)C1O)[C@H]1CC[C@]2(C)[C@@H]1[C@H](O)C[C@@H]1[C@@]3(C)CC[C@H](OC4OC(CO)C(O)C(O)C4OC4OC(CO)C(O)C(O)C4O)C(C)(C)[C@@H]3CC[C@]12C (stereo partly shown) [Rc]
[1]
  inhibition at 200 µg/mL: 60.7%

## CC(C)=CCC[C@](C)(OC1OC(COC2OCC(O)C(O)C2O)C(O)C(O)C1O)[C@H]1CC[C@]2(C)[C@@H]1[C@H](O)C[C@@H]1[C@@]3(C)CC[C@H](OC4OC(CO)C(O)C(O)C4OC4OC(CO)C(O)C(O)C4O)C(C)(C)[C@@H]3CC[C@]12C (stereo partly shown) [Rb2]
[1]
  inhibition at 200 µg/mL: 42.9%

## CC(C)=CCC[C@](C)(O[C@@H]1O[C@H](CO[C@@H]2OC[C@@H](O)[C@H](O)[C@H]2O)[C@@H](O)[C@H](O)[C@H]1O)[C@H]1CC[C@]2(C)[C@@H]1[C@H](O)C[C@@H]1[C@@]3(C)CC[C@H](O[C@@H]4O[C@H](CO)[C@@H](O)[C@H](O)[C@H]4O[C@@H]4O[C@H](CO)[C@@H](O)[C@H](O)[C@H]4O)C(C)(C)[C@@H]3CC[C@]12C [Rb3]
gp120 protein
  binding to gp120 protein: can bind
[1]; Hela-CD4 cell strain, 0.2 mg/ml
  Inhibition Rate (0.2 mg/ml): 70.68%
[1]; Hela-CD4 cell strain, 0.4 mg/ml
  Inhibition Rate (0.4 mg/ml): 97.9%
gp41 protein
  binding to gp41 protein: can bind
[2]; dosing 2 hours post-infection
  Inhibition rate (%): 83.98%
[2]; dosing 10 hours post-infection
  Inhibition rate (%): 0%
[2]; dosing 29 hours post-infection
  Inhibition rate (%): 0%

## CC(C)=CCC[C@](C)(OC1OC(COC2OC(CO)C(O)C(O)C2O)C(O)C(O)C1O)[C@H]1CC[C@]2(C)[C@@H]1[C@H](O)C[C@@H]1[C@@]3(C)CC[C@H](OC4OC(CO)C(O)C(O)C4OC4OC(CO)C(O)C(O)C4O)C(C)(C)[C@@H]3CC[C@]12C (stereo partly shown) [Rb1]
[1]
  inhibition at 200 µg/mL: 41.9%

## Cc1cn([C@H]2C[C@H](N=[N+]=[N-])[C@@H](CO)O2)c(=O)[nH]c1=O [AZT]
HIV-1 in Hela-CD4 cells; AZT alone or AZT combined with JHR dose 1-5, MAGI test, read-out: ED50 (the source's name)
  EC50: 46 nM
HIV-1 in Hela-CD4 cells; AZT alone, read-out: IC50 of AZT alone
  IC50: 46 nM
HIV-1 in Hela-CD4 cells; combined with the first dose of JHR, read-out: IC50 of AZT after combining with the first dose of JHR
  IC50: 5.8 nM
